SMILES strings stand for the structures. Like-named read-outs stand apart in the source and are kept apart here. Some results are limits rather than exact numbers.

The test system of data set [1] is Gram positive, Gram negative bacteria, yeast and mould. As to the kind of experiment: Minimum inhibitory concentration, whole panel of microbes. It is filed as cell-based. The settings on record: for Antimicrobial activity, in words: up to 1.0% concentration.
The nature of data set [2]: Reduction of surface tension of water. The format is physicochemical.
The subject of data set [3] is Bacillus subtilis ATCC 9372. Put plainly: Minimum inhibitory concentration. The format is cell-based. The note with it: B. subtilis.
The subject of data set [4] is Malassezia furfur MTCC 1374. Put plainly: Minimum inhibitory concentration. The format is cell-based. The settings on record: M. furfur.
Data set [5] concerns Aspergillus niger ATCC 16404. As to the kind of experiment: Minimum inhibitory concentration. The format is cell-based. The settings on record: for Concentration of individual component at the MIC of the blend: A. niger.
Data set [6] deals with Candida albicans ATCC 10231. Put plainly: Minimum inhibitory concentration. It is filed as cell-based. The settings on record: for Concentration of individual component at the MIC of the blend: C. albicans.
Data set [7] relates to Staphylococcus aureus ATCC 6538S. Put plainly: Minimum inhibitory concentration. It is filed as cell-based.
Data set [8] concerns Pseudomonas aeruginosa Immuno type IV. Put plainly: Minimum inhibitory concentration. The format is cell-based. The note with it: P. aeruginosa.
Data set [9] deals with Escherichia coli ATCC 10142. Put plainly: Minimum inhibitory concentration. The format is cell-based. The note with it: E. coli.
Data set [10] concerns Propionibacterium acnes MTCC 1951. Put plainly: Minimum inhibitory concentration. It is filed as cell-based. The settings on record: P. acnes.
The conditions of data set [11]: 0.1% aqueous solution at 25° C., from 72 dynes/cm; cited from earlier work.

For `CCCCCCCC(=O)NCCO` [Octanoyl MEA amide, N-(2-hydroxylethyl)caprylic acid amide], in [1], the “Antimicrobial activity, in words” value is listed as “did not exhibit any antibacterial activity”. For the same compound, the “Surface tension of water reduced to” value in data set [2] (0.05% level) is 38 dynes/cm; in data set [2] (0.1% concentration), 30 dynes/cm. For the same compound, the “Surface tension of water” value was determined as 38.5 dyne/cm in [2] (0.05% solution) and 30.5 dyne/cm in data set [2] (0.1% solution).
As to `OCCOc1ccccc1` [Phenoxy ethanol, 2-Phenoxy ethanol], the entries for the “Concentration of individual component at the MIC of the blend” value (“Concentration of individual component” for short) in data set [3] (within Preservative Blend No 2) and in data set [4] (within Preservative Blend No 2) were 1600 ppm and 3200 ppm, respectively. Further, the “Concentration of phenoxy ethanol in combination enough to kill the organism” value in data set [5] (in combination with [A] and [B] of Preservative Blend No 1, Aspergillus) is reported as “around 0.25%”; in data set [6] (in combination with [A] and [B] of Preservative Blend No 1, Candida) it was “around 0.25%”.
As to `C=CCCCCCCCCC(=O)NCCO` [Undecylenoyl MEA amide, N-undecylenoyl monoethanol amide], the “Concentration of individual component” value in data set [7] (within Preservative Blend No 1) is recorded as 200 ppm; in [7] (within Preservative Blend No 2), 300 ppm; in data set [8] (within Preservative Blend No 1), 200 ppm; in data set [8] (within Preservative Blend No 2) it was 300 ppm; in data set [9] (within Preservative Blend No 1), 200 ppm; in [9] (within Preservative Blend No 2), 300 ppm. Also, the “Concentration of individual component” value in data set [3] (within Preservative Blend No 1) was found to be 200 ppm; in [3] (within Preservative Blend No 2), 200 ppm; in data set [4] (within Preservative Blend No 1), 400 ppm; in [4] (within Preservative Blend No 2) it was 400 ppm; in [5] (within Preservative Blend No 1), 300 ppm; in [5] (within Preservative Blend No 2) it was 200 ppm. Also, the “Concentration of individual component” value in data set [10] (within Preservative Blend No 1) is recorded as 300 ppm; in data set [10] (within Preservative Blend No 2) it was 200 ppm; in data set [6] (within Preservative Blend No 1) it was 300 ppm; in data set [6] (within Preservative Blend No 2) it was 200 ppm. The “Concentration needed for antimicrobial activity of the ingredient by itself (range over microbes)” value in [1] (ingredient alone, octanoyl glycine tested at neutral pH) was over 10000 ppm. The “Antimicrobial activity, in words” value in data set [1] is “does not exhibit any antimicrobial activity”.
As for `CCCCC(CC)COCC(O)CO` (stereo not shown) [2-ethyl hexyl glyceryl ether, 3-(2-ethylhexyl)oxy 1,2-propanediol], the “Surface tension of water reduced to” value in [11] is 32 dynes/cm.

The values above are taken from US9661847B2, “Antimicrobial preservative compositions for personal care products” (Galaxy Surfactants Ltd., priority 2011, dated 2017).
